Experimental data published in patent publication US8012994B1 (priority 2006, dated 2011).
Structures can show the parent of a compound that is named as a salt.

Columns and labels:
Format in all cases: in vivo, human
[1] = test system: sensorineural hearing loss caused by hyperbilirubinemia; experiment: Treatment for sensorineural hearing loss caused by hyperbilirubinemia
Description: Research was conducted on four patients (age 2 to 5 years) who had hyperbilirubinemia soon after birth. The hearing impairment was diagnosed when the children were examined and treated for hyperkinetic cerebral palsy. The children were not able to walk.
After the treatment, their hearing improved by 10-15 dB.

[2] = test system: sensorineural hearing loss caused by birth injury; experiment: Treatment for sensorineural hearing loss caused by birth injury
Description: Research was conducted with 4 patients whose hearing loss was caused by birth injury. Two patients were twin boys […] and two patients […].
The twins had sensorineural hearing loss in both ears. […] The course was repeated in 1.5 months, and the third course was conducted in 3 months.
Treatment was then conducted according to the following pattern.
The courses were repeated every three months for three years. They received 8 and 10 courses respectively.

[3] = test system: hearing loss caused by toxoplasmosis; experiment: Treatment for neuropathy of CN VIII: hearing loss caused by toxoplasmosis; conditions: patient
Description: This research involved observation of neuropathy in the vestibulocochlear nerve of 17 patients.
In two patients, the hearing loss was caused by toxoplasmosis. In one patient, inborn toxoplasmosis was diagnosed. The other patient developed toxoplasmosis from an infected cat.
The second course was conducted in three months. After four courses of treatment, their hearing improved by 25 dB.
After 5 courses of treatment, their hearing improved by 30 dB.

[4] = test system: sensorineural hearing loss caused by Usher syndrome; experiment: Treatment for sensorineural hearing loss caused by Usher syndrome
Description: A group of 4 children of 5-6 years old with Usher's syndrome were studied. They manifested profound hearing impairment of 65-75 dB alongside progressive loss of vision due to retinitis pigmentosa. These children had been previously refused treatment on the account of their disease being genetic.
In 1.5 months there was an improvement in hearing by 5 dB. […] The third course was conducted in three months according to the same pattern. After that the hearing improved by 10-15 dB.
PIRIBEDIL® is a vasodilative drug used for treating vision and hearing disorders. Applicant observed that the hearing was improved by 5-10 dB. The patients were recommended to have a follow up treatment every 6 months according to the same pattern.

[5] = test system: neurinomas of cerebellopontine angle; experiment: Treatment for neurinomas of cerebellopontine angle
From the text: Neurinomas of the cerebropontine angle—7 patients (2 patients and 5 people from 35 to 45 years of age).
In all 7 patients, the tumor was diagnosed late and was of a considerable size. In spite of the fact that all of them had consulted doctors, they were correctly diagnosed only after the appearance of the symptoms of damage to the facial nerve, ataxy, and complete hearing loss. Some of the patients underwent neurosurgery, including partial removal of the tumor followed by chemo- and radio-therapy. The patients manifested paralysis of the facial nerve, optic atrophy, and tinnitus, dizziness and paresis or hemisyndrom of different degrees.
After the operations, some of the patients had severe complications. […] Disorders of differentiation of words, especially in noisy environments. Some patients manifested convulsions and severe headaches. The encephalogram registered readiness for convulsions. Such patients initially underwent anticonvulsant therapy with CARBAMAZEPINE® 100 mg two times a day.
The course of treatment was repeated every 3-6 months. […] The patients started to differentiate shapes of objects, which helped them to orient in the surroundings and to come to the clinic without a guide.

meningiomas = experiment: Treatment of patients with meningiomas; conditions: 1.25 mg once a day, three courses
Description: Applicant observed two patients with meningiomas. Their tumors were of a considerable size. These patients had undergone surgery, which was conducted in two stages, and was followed by chemo- and radiation therapy. These patients were practically blind, and had bilateral optic atrophy, their hearing function was impaired by 30-40 dB, they were not able to differentiate words in noisy environments. They also manifested convulsive attacks up to 15 times a day. They went through the anticonvulsant therapy, after which their convulsions occurred only for 2 times a month. […] In a month and a half, the treatment was conducted according to the following pattern. 1.25 mg once a day for 7 days, followed by a 5 day break. […] This course was repeated in 3 months. The third course was conducted in 6 months. […] These improvements satisfied the patients and no further treatment was conducted.

minimal hearing loss = experiment: Treatment for minimal hearing loss
From the text: A group of patients consisting of 56 children was selected. 29 children—4 years of age and 27 children—5-6 years of age.
Minimal hearing disorders were discovered when these children were investigated for speech development delay.
The course of treatment was repeated in three months. Depending on the degree of the impairment and its cause, the patients received from 3 to 8 courses of treatment.

[6] = test system: sensorineural hearing loss of vascular genesis; experiment: Treatment for sensorineural hearing loss of vascular genesis
Description: A group of 24 patients at the age of 50-65 were treated for sensorineural hearing loss. […] After a 7-10 days break, the course was repeated. […] The hearing in one ear improved by 5-10 dB.
So the second intake of the drug at night was withdrawn. […] After that, they refused to continue the treatment for the lack of desired effect.
Three courses of treatment were conducted. […] Then, the patients terminated the treatment because of its high cost.

[7] = test system: blind mute and deaf children; experiment: galanthamine hydrobromide injections in blind mute and deaf children; conditions: one of 3 patients, 7-9 years old; 0.1 ml of 0.5% solution per year of life, 15-20 injections
Description: 25 years ago, applicant conducted a study of a small group of blind mute and deaf children (3 patients) at the age of 7-9 years old. There was an attempt to restore their visual function using galanthamine hydrobromide solution at the dosage of 0.1 ml of 0.5% of galanthamine hydrobromide for each year of life. The course of treatment included 15-20 injections. […] This finding gave an impetus to conduct additional research into the restoration of auditory function using acetylholinesterase inhibitors in conjunction with laser stimulation.

[8] = after three courses, 0.625 mg once a day during 25 days
[9] = twin boys, three courses, 2.5 mg twice a day for 20 days
[10] = 7 patients, courses repeated every 3-6 months
[11] = 18 patients, 2.5 mg a day with vasodilating treatment, three courses

With `COc1cc2c(cc1OC)C(=O)C(CC1CCN(Cc3ccccc3)CC1)C2` (stereo not drawn) [ARICEPT®, donepezil hydrochloride] the concentration [1, 8] was “concentration improved”, the hyperkinesias [1, 8] was “some decrease of hyperkinesias” and the hearing ([1]; four patients 2-5 years, after three courses, 0.625 mg once a day during 25 days) was “no improvement in hearing”. The hyperkinesia and walking ([1]; patient with profound hearing loss, after ten courses) was “Hyperkinesia decreased and the patient began to walk”, the hearing threshold ([1]; patient, threshold over 95 dB before, after ten courses) was 90 dB and the “hearing improved by” value ([1]; two children, 10 courses, 0.625 mg twice a day for 25 days, three months break) was 10-15 dB. The “hearing improved by, in one ear” value ([2]; each twin, further three courses 2.5 mg twice a day for 25 days, with PERIBEDIL 10 mg twice a day from the 4th course) was 20-25 dB, the “hearing improved by” value ([2]; person, sensorineural hearing loss of 65 dB, 2.5 mg once a day for twenty days, 10 courses over three years) was 10 dB and the “hearing improved by, in one ear” value ([2]; twin boys of 10 years, three courses, 2.5 mg twice a day for 20 days, hydrochloride) was 10 dB. The fatiguability [2, 9] was “decreased fatiguability”, the speech [2, 9] was “speech became more understandable” and the “hearing improved by” value ([3]; 0.625 mg once a day during 20 days, after four courses) was 25 dB. The “hearing improved by” value ([3]; 2.5 mg once a day for 20 days, after 5 courses) was 30 dB, the improvement in hearing ([4]; 4 children 5-6 years, loss 65-75 dB, 1.25 mg 2 times a day for 20 days, in 1.5 months) was 5 dB and the visual function ([4]; after the third course) was “improved visual function”. For the same compound, the “hearing improved by” value ([4]; after the third course, 1.25 mg two times a day) was 10-15 dB, the “hearing improved by” value ([4]; two patients, after six months, with PIRIBEDIL 5 mg two times a day) was 5-10 dB and the tinnitus [5, 10] was “decrease of tinnitus”. The visual function [5, 10] was “improvement in their visual function”, the “effect of further courses” value ([5]; after 5-6 courses of treatment) was “no further improvement” and the side effects ([5]; dosage increased to 5 mg twice a day, with anticonvulsant therapy) was “headaches and sleep disturbances”. The side effects ([5]; dosage of 2.5 mg a day) was “didn't produce side effects”, the hearing (meningiomas; 2 patients, hearing impaired by 30-40 dB) was “improvement of hearing” and the speech (meningiomas; 2 patients, with anticonvulsant therapy) was “increased legibility of speech”. The vision (meningiomas; 2 practically blind patients) was “clear differentiation of the source of light”, the higher psychic functions (minimal hearing loss; 56 children 4-6 years) was “improvement of higher psychic functions” and the “most noticeable improvement of phonemic hearing and speech functions observed” value (minimal hearing loss; 56 children 4-6 years, 1.25 mg once a day during 20 days) was “between the 3d and the 5th courses”. The “hearing improved by” value (minimal hearing loss; children with sensorineural hearing loss, 1.25 mg once a day during 20 days, 3 to 8 courses) was 5-10 dB, the “children who manifested the increase in the intellect” value (minimal hearing loss; starting from the 4th course, preliminary results) was 85% and the hearing ([6]; 6 patients, night intake withdrawn, after the fourth course) was “slight improvement of hearing”. For the same compound, the side effects ([6]; 6 patients, 2.5 mg twice a day) was “irritability and sleep disturbances”, the tinnitus ([6]; 18 of 24 patients 50-65 years, after the first course, 2.5 mg twice a day during 25 days) was “decrease of tinnitus” and the dizziness [6, 11] was “decrease of dizziness”. The hearing [6, 11] was “improved hearing in one ear” and the “hearing in one ear improved by” value ([6]; after the first course, 2.5 mg twice a day during 25 days) was 5-10 dB.

`COc1ccc2c3c1O[C@H]1C[C@@H](O)C=C[C@@]31CCN(C)C2` [galanthamine hydrobromide] was tested, and the auditory function [7] was “minor improvement of auditory function”.
